Experiments:
[1] = molecular target: T1, COX-2 human recombinant enzyme (Homo sapiens, UniProt P35354); assay: Fluorometric COX-2 inhibitor screening kit; assay type: biochemical; details: IC50 ± standard error
T1 construct: purchased Abcam ab283401
T1 sequence (P35354 18-604): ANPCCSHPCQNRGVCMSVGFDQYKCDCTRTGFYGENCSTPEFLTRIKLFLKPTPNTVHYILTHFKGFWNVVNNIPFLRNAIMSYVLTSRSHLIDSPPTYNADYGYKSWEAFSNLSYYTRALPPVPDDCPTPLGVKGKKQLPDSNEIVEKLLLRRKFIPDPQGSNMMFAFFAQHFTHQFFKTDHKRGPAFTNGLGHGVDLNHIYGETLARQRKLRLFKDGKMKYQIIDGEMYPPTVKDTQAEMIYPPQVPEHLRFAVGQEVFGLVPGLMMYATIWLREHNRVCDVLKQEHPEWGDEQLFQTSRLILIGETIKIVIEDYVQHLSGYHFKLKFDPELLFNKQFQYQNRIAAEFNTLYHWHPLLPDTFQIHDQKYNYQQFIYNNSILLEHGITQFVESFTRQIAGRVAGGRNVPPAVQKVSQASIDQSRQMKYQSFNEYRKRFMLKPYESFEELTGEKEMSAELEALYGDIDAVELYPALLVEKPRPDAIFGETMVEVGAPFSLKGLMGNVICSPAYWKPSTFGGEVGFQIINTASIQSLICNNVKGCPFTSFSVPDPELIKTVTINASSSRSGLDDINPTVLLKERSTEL
Experimental: The COX-1 and COX-2 inhibitory activates of the synthesized compounds were tested using fluorometric COX-1 (Catalog Number: ab204698) and COX-2 (Catalog Number: ab283401) inhibitor screening kits (Abcam, United Kingdom). These assays are based on the fluorometric detection of Prostaglandin G2, generated by the COX enzyme. The experiment was conducted according to the manufacturer’s instructions. Each assay consists of a COX Assay Buffer, COX Probe (in DMSO), COX Cofactor (in DMSO), arachidonic acid and NaOH. The COX-1 inhibitor screening kit contains COX-1 ovine enzyme and COX-1 inhibitor SC560 (dissolved in DMSO), while the COX-2 inhibitor screening kit contains COX-2 human recombinant enzyme and COX-2 inhibitor Celecoxib (dissolved in DMSO). The tested compounds were dissolved in DMSO and further diluted five times with the COX Assay Buffer. The Inhibitor Control (IC) was prepared by adding 2 µL of COX-1/COX-2 inhibitor and 8 µL of COX Assay Buffer into assigned wells, while the Solvent Control (SC) was prepared by adding 2 µL of DMSO and 8 µL of COX Assay Buffer into assigned wells and the Sample (S) and Enzyme Control (EC) were prepared by adding 10 µL of diluted tested compounds or COX Assay Buffer into assigned wells. The Reaction Master Mix (COX Assay Buffer, COX Probe, Diluted COX Cofactor and COX-1/COX-2 Enzyme) was prepared according to instructions and 80 µL of the Reaction Master Mix was added into each well. Meanwhile, a diluted arachidonic acid/NaOH solution was prepared and 10 µL was added into each well using a multi-channel pipette to initiate all the reactions at the same time. […] The EC, SC, IC and tested compounds at all concentrations were analyzed in triplicates. Two points (T1 and T2) in the linear range of the plot were chosen and corresponding fluorescence values (RFU1 and RFU2) were obtained. The slope for all samples was calculated by dividing ΔRFU (RFU2-RFU1) by time Δt (T2−T1). The percentage of inhibition was calculated as follows: % Relative Inhibition=Slope of EC−Slope of S/Slope of EC∗100
(§1) Fluorescence measurements were performed on a BioTek Synergy LX multi-mode reader (Winooski, VT, USA).

5-LOX enzyme = molecular target: T2, 5-LOX enzyme (Homo sapiens, UniProt P09917); assay: Fluorometric 5-LOX inhibitor screening kit; assay type: biochemical; details: IC50 ± standard error
T2 construct: purchased MyBioSource MBS846911
T2 sequence (P09917 1-674): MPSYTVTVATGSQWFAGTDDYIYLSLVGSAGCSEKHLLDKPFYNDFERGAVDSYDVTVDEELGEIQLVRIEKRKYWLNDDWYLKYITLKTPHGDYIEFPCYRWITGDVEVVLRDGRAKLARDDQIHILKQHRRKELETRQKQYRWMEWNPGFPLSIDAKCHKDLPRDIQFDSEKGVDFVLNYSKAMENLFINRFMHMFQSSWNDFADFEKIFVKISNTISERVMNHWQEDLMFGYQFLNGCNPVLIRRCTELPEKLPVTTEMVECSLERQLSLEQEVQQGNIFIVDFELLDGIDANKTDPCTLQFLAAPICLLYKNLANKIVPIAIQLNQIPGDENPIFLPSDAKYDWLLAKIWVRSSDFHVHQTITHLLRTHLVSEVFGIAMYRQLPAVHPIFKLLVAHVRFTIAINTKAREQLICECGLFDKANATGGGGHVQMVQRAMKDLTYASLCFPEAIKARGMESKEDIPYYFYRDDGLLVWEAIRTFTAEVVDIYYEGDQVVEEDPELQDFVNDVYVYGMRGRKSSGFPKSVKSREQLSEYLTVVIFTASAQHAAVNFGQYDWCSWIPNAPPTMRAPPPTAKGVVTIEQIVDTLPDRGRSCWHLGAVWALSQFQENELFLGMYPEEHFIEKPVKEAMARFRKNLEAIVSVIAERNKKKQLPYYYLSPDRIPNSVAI
Experimental: The 5-LOX inhibitory activates of synthesized compounds were tested using a fluorometric 5-LOX inhibitor screening kit (MyBioSource, San Diego, CA, USA; Catalog Number: MBS846911). This assay is based on the fluorometric detection of the intermediate generated by the 5-LOX enzyme. The experiment was conducted according to the manufacturer’s instructions. […] The tested compounds were dissolved in DMSO. Test solutions were added to corresponding wells at an amount of 2 µL out of the final 100 µL reaction volume per well. […] The volume was adjusted to 40 µL in each well by adding 38 µL of LOX Assay Buffer. The Reaction Mix (containing LOX Assay Buffer, LOX Probe and 5-LOX Enzyme) was prepared according to the instructions and 40 µL of the Reaction Mix was added into each well. The plate was incubated at room temperature for 10 min before adding the substrate diluted in the LOX Assay Buffer (1:2500 dilution factor). The final substrate solution was added at an amount of 20 µL into each well using a multi-channel pipette to initiate all the reactions at the same time. […] The EC, SC, IC and tested compounds at all concentrations were analyzed in triplicates. Two points (T1 and T2) in the linear range of the plot were chosen and corresponding fluorescence values (RFU1 and RFU2) were obtained. The slope for all samples was calculated by dividing ΔRFU (RFU2-RFU1) by the time Δt (T2−T1). The percentage of inhibition was calculated according to the equation mentioned in Section 3.3.1.
as §1

IC50 [1] | IC50 (5-LOX enzyme) | melting point | SMILES
83.4 ± 4.37 µM | 1.29 ± 0.1 µM |  | COc1ccc2cc(C(C)N(O)C(C)=O)ccc2c1 (stereo not shown) [Compound 12, N-hydroxy-N-[1-(6-methoxy-naphthalen-2-yl)-ethyl]-acetamide]
6.72 ± 0.79 µM | 1.62 ± 0.67 µM |  | CC(NC(=O)NO)c1ccc(-c2ccccc2)c(F)c1 (stereo not shown) [Compound 2]
> 100 µM | 13 ± 2.67 µM | 178 to 181 °C | CCOc1ccccc1NC(=O)Nc1ccc([N+](=O)[O-])cc1 [Compound 10, 1-(2-ethoxy-phenyl)-3-(4-nitro-phenyl)-urea]
5.26 ± 0.34 µM | 1.73 ± 0.64 µM |  | O=C(NO)NCc1ccccc1Nc1c(Cl)cccc1Cl [Compound 3, N’-hydroxy-N-[(2-(2,6-dichloroanilino)phenyl)methyl]urea]
> 100 µM | > 100 µM | 158 to 159.5 °C | CN(C)C(=O)Nc1ccccc1C(=O)O [Compound 9, 2-(3,3-dimethyl-ureido)-benzoic acid]
18.3 ± 2.17 µM | 5.71 ± 0.15 µM |  | COc1ccc2c(c1)c(CNC(=O)NO)c(C)n2C(=O)c1ccc(Cl)cc1 [Compound 1, N’-hydroxy-N-[(1-(4-chlorobenzoyl)-5-methoxy-2-methyl-3-indolyl)methyl]urea]

The next lines start with the molecule.

SMILES | IC50 [1] | IC50 (5-LOX enzyme) | melting point
CCOc1ccccc1NC(=O)N(C)C [Compound 8, 3-(2-ethoxy-phenyl)-1,1-dimethyl-urea] | > 100 µM | 14.5 ± 3.62 µM | 71.5 to 72.5 °C
C#CCNC(=O)c1cc(C(C)(C)C)c(O)c(C(C)(C)C)c1 [Compound 7, 3,5-di-tert-butyl-4-hydroxy-N-prop-2-ynyl-benzamide] | > 100 µM | 12.6 ± 3.36 µM | 178.5 to 180 °C
COC(=O)C(Cc1c[nH]cn1)NC(=O)c1cc(C(C)(C)C)c(O)c(C(C)(C)C)c1 (stereo not shown) [Compound 4, 2-(3,5-di-tert-butyl-4-hydroxy-benzoylamino)-3-(1H-imidazol-4-yl)-propionic acid methyl ester] | > 100 µM | 8.1 ± 2.12 µM | 117 to 119 °C
COC(=O)CNC(=O)c1cc(C(C)(C)C)c(O)c(C(C)(C)C)c1 [Compound 5, (3,5-di-tert-butyl-4-hydroxy-benzoylamino)-acetic acid methyl ester] | 10.6 ± 0.8 µM | 9.3 ± 1.87 µM | 130 to 132 °C
C=CCNC(=O)c1cc(C(C)(C)C)c(O)c(C(C)(C)C)c1 [Compound 6, N-allyl-3,5-di-tert-butyl-4-hydroxy-benzamide] | 6.89 ± 0.83 µM | 53.8 ± 11.9 µM | 182 to 183.5 °C
CC(C)(C)c1cc(C=C2SC(=S)N(N)C2=O)cc(C(C)(C)C)c1O [Compound 13, 3-amino-5-(3,5-di-tert-butyl-4-hydroxy-benzylidene)-2-thioxo-thiazolidin-4-one] | > 100 µM | 13.6 ± 3.54 µM | 244.5 to 246.5 °C
CC(=O)N(O)C(C)c1ccc(CC(C)C)cc1 (stereo not shown) [Compound 11] | 36.2 ± 3.08 µM | 1.04 ± 0.22 µM | 

— publication PMC10142505, “Synthesis, Evaluation of Enzyme Inhibition and Redox Properties of Potential Dual COX-2 and 5-LOX Inhibitors” (Pharmaceuticals, 2023)
